For orientation: DC50 means the concentration giving 50% degradation. A higher DC50 goes with degradation only at high concentration. The Dmax is the greatest extent of degradation seen. Read a low Dmax as shallow degradation.

In the assay the target is T1, HiBit tagged KAT6A (Homo sapiens, UniProt Q92794).
T1 construct: host or cells: HeLa
In words: HiBit KAT6A Degradation Assessment. Format: cell-based. The following applies: HeLa cells with HiBit tagged KAT6A, 18 h of treatment, 9-point serial dilution. The protocol:
The degradation activity of compounds was evaluated by measuring levels of KAT6A protein using the HiBiT system. These studies were conducted in HeLa cells with a HiBit tagged KAT6A. Cells were maintained in a 37° C. incubator at 5% CO2 in EMEM (ATCC, 30-2003) supplemented with 10% v/v FBS (Gibco, 26140-079) and 1% penicillin streptomycin. Cells were seeded in 384-well plates at a density of 2,000 cells/well. Compounds dissolved in DMSO were added in 9-point serial dilution. After 18 h of treatment, KAT6A levels were measured using the Nano-Glo® HiBiT Lytic Detection System (Promega catalog number N3030) per manufacturer's instructions. Luminescence signal was measured with a multimode plate reader (Envision 2105, Perkin Elmer). Luminescence values were normalized to background and DMSO controls to quantify KAT6A for each condition. Results were analyzed, and DC50 and Dmax values obtained using a four-parameter logistic curve fit.

SMILES strings stand for the structures.

T1 sequence (Q92794 whole entry): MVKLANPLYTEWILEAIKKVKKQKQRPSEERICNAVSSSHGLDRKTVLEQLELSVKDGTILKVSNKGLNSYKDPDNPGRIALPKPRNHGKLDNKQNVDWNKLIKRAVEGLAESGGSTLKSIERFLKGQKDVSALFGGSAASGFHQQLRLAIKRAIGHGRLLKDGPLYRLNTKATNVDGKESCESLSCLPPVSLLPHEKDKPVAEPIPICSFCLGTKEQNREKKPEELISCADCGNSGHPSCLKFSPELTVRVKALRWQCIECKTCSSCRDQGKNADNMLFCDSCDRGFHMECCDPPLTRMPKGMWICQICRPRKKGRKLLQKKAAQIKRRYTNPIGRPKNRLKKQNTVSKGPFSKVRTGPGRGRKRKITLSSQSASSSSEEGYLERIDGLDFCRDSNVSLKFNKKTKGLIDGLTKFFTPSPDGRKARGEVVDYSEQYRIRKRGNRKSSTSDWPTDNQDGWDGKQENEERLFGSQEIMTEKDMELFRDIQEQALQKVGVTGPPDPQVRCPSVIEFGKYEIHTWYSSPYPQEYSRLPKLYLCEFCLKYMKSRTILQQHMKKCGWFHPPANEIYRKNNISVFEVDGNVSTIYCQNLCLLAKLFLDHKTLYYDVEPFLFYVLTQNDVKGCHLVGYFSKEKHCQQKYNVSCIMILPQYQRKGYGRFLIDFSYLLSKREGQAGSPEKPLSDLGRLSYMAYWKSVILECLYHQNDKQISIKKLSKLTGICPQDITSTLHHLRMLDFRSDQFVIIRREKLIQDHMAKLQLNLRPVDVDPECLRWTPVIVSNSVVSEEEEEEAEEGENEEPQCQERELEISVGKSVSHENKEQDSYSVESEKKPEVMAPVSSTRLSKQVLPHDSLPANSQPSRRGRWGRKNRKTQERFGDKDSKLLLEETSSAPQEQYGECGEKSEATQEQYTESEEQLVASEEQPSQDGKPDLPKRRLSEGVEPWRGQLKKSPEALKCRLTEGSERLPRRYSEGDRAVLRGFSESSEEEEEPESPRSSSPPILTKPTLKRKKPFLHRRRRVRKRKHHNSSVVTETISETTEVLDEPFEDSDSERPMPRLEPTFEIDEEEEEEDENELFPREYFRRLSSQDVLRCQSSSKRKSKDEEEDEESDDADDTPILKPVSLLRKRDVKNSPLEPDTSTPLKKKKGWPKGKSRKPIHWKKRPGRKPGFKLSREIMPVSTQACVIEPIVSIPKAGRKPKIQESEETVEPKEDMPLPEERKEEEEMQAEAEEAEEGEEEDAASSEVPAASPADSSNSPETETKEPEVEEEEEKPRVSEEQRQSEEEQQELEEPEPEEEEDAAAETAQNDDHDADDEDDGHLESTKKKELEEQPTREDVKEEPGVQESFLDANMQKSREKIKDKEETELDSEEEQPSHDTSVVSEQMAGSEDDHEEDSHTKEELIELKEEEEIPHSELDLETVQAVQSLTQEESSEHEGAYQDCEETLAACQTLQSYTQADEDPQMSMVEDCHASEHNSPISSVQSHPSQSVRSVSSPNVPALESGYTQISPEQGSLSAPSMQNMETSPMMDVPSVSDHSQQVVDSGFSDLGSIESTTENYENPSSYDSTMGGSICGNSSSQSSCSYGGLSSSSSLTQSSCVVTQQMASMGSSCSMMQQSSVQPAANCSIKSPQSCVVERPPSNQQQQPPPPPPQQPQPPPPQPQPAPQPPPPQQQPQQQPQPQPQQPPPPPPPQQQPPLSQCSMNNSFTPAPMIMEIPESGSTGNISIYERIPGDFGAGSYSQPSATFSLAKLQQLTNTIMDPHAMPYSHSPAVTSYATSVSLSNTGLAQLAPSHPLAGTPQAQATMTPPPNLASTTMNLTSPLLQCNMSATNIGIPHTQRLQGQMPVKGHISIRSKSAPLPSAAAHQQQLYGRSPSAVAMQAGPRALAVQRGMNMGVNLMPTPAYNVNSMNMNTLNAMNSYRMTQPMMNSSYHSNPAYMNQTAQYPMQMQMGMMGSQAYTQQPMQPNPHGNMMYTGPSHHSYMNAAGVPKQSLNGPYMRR

`COc1ccc(N2CC3(CCN(C[C@@H]4CCN(c5ccc6c(c5)C(=O)N(C5CCC(=O)NC5=O)C6=O)C4)CC3)C2)c(OC)c1S(=O)(=O)Nc1noc2cc(Cn3cccn3)cc(OC)c12` (stereo partly drawn) [Example 25, N-(6-((1H-Pyrazol-1-yl)methyl)-4-methoxybenzo[d]isoxazol-3-yl)-3-(7-(((3S)-1-(2-(2,6-dioxopiperidin-3-yl)-1,3-dioxoisoindolin-5-yl)pyrrolidin-3-yl)methyl)-2,7-diazaspiro[3.5]nonan-2-yl)-2,6-dimethoxybenzenesulfonamide] displayed a DC50 of less than 10 nM and a Dmax of more than 75%. In the case of `COc1cc(Cn2cccn2)cc2onc(NS(=O)(=O)c3cccc(N4CCN(CCOC5CCN(c6ccc7c(c6)C(=O)N(C6CCC(=O)NC6=O)C7=O)CC5)CC4)c3)c12` (centres unmarked) [Example 17, N-(6-((1H-Pyrazol-1-yl)methyl)-4-methoxybenzo[d]isoxazol-3-yl)-3-(4-(2-((1-(2-(2,6-dioxopiperidin-3-yl)-1,3-dioxoisoindolin-5-yl)piperidin-4-yl)oxy)ethyl)-piperazin-1-yl)benzenesulfonamide], the Dmax lay in the range of 25 to 50%. The compound `COc1c(N2CC3(CCN(C[C@@H]4CCN(c5ccc6c(c5)C(=O)N(C5CCC(=O)NC5=O)C6=O)C4)CC3)C2)cccc1S(=O)(=O)Nc1noc2cc(Cn3cccn3)cc(OC)c12` (stereo partly drawn) [Example 30, N-(6-((1H-pyrazol-1-yl)methyl)-4-methoxybenzo[d]isoxazol-3-yl)-3-(7-(((3S)-1-(2-(2,6-dioxopiperidin-3-yl)-1,3-dioxoisoindolin-5-yl)pyrrolidin-3-yl)methyl)-2,7-diazaspiro[3.5]nonan-2-yl)-2-methoxybenzenesulfonamide] displayed a DC50 of less than 10 nM and a Dmax of more than 75%. Turning to `COc1cc(Cn2cccn2)cc2onc(NS(=O)(=O)c3cccc(N4CCN(CC5CCN(c6cccc7c6C(=O)N(C6CCC(=O)NC6=O)C7=O)C5)CC4)c3)c12` (centres unmarked) [Example 31, N-(6-((1H-Pyrazol-1-yl)methyl)-4-methoxybenzo[d]isoxazol-3-yl)-3-(4-((1-(2-(2,6-dioxopiperidin-3-yl)-1,3-dioxoisoindolin-4-yl)pyrrolidin-3-yl)methyl)piperazin-1-yl)benzenesulfonamide], the DC50 was 100 to 1000 nM and the Dmax is 50 to 75%. The compound `COc1ccc(N2CC3(CCN(CC4CCN(c5ccc6c(c5)C(=O)N(C5CCC(=O)NC5=O)C6=O)C4)CC3)C2)cc1S(=O)(=O)Nc1noc2cc(Cn3cccn3)cc(OC)c12` (centres unmarked) [Example 41, N-(6-((1H-pyrazol-1-yl)methyl)-4-methoxybenzo[d]isoxazol-3-yl)-5-(7-((1-(2-(2,6-dioxopiperidin-3-yl)-1,3-dioxoisoindolin-5-yl)pyrrolidin-3-yl)methyl)-2,7-diazaspiro[3.5]nonan-2-yl)-2-methoxybenzenesulfonamide] displayed a DC50 of less than 10 nM and a Dmax of 50 to 75%.

In turn, `COc1cc(Cn2cccn2)cc2onc(NS(=O)(=O)c3cccc(N4CC5(CCN(CC6CCN(c7ccc8c(c7)C(=O)N(C7CCC(=O)NC7=O)C8)C6)CC5)C4)c3)c12` (centres unmarked) [Example 34, N-(6-((1H-pyrazol-1-yl)methyl)-4-methoxybenzo[d]isoxazol-3-yl)-3-(7-((1-(2-(2,6-dioxopiperidin-3-yl)-3-oxoisoindolin-5-yl)pyrrolidin-3-yl)methyl)-2,7-diazaspirononan-2-yl)benzenesulfonamide] yielded a DC50 of less than 10 nM and a Dmax of 50 to 75%.

On to `COc1cc(Cn2cccn2)cc2onc(NS(=O)(=O)c3cccc(N4CCN(CC5CN(c6ccc7c(c6)C(=O)N(C6CCC(=O)NC6=O)C7=O)C5)CC4)c3)c12` (centres unmarked) [Example 42, N-(6-((1H-pyrazol-1-yl)methyl)-4-methoxybenzo[d]isoxazol-3-yl)-3-(4-((1-(2-(2,6-dioxopiperidin-3-yl)-1,3-dioxoisoindolin-5-yl)azetidin-3-yl)methyl)piperazin-1-yl)benzenesulfonamide], for which the DC50 was in the range of 10 to 100 nM and the Dmax lay within 50 to 75%. `COc1cc(Cn2cccn2)cc2onc(NS(=O)(=O)c3cccc(N4CC5(CCN(CC6(F)CCN(c7ccc8c(c7)C(=O)N(C7CCC(=O)NC7=O)C8=O)C6)CC5)C4)c3)c12` (centres unmarked) [Example 13, N-(6-((1H-Pyrazol-1-yl)methyl)-4-methoxybenzo[d]isoxazol-3-yl)-3-(7-((1-(2-(2,6-dioxopiperidin-3-yl)-1,3-dioxoisoindolin-5-yl)-3-fluoropyrrolidin-3-yl)methyl)-2,7-diazaspiro[3.5]nonan-2-yl)benzenesulfonamide] displayed a DC50 of 10 to 100 nM and a Dmax of 50 to 75%. As to `COc1cc(Cn2cccn2)cc2onc(NS(=O)(=O)c3cccc(N4CCC5(CCN(C[C@@H]6CCN(c7ccc8c(c7)CN(C7CCC(=O)NC7=O)C8=O)C6)CC5)CC4)c3)c12` (stereo partly drawn) [Example 39, N-(6-((1H-Pyrazol-1-yl)methyl)-4-methoxybenzo[d]isoxazol-3-yl)-3-(9-(((3S)-1-(2-(2,6-dioxopiperidin-3-yl)-1-oxoisoindolin-5-yl)pyrrolidin-3-yl)methyl)-3,9-diazaspiro[5.5]undecan-3-yl)benzenesulfonamide], the DC50 is less than 10 nM and the Dmax is more than 75%. The corresponding values for `COc1cc(Cn2cccn2)cc2onc(NS(=O)(=O)c3cccc(N4CC5(CCN(C6CC7(CCN(c8ccc9c(c8)C(=O)N(C8CCC(=O)NC8=O)C9=O)C7)C6)CC5)C4)c3)c12` (centres unmarked) [Example 22, N-(6-((1H-Pyrazol-1-yl)methyl)-4-methoxybenzo[d]isoxazol-3-yl)-3-(7-(6-(2-(2,6-dioxopiperidin-3-yl)-1,3-dioxoisoindolin-5-yl)-6-azaspiro[3.4]octan-2-yl)-2,7-diazaspiro[3.5]nonan-2-yl)benzenesulfonamide] are less than 10 nM and 50 to 75%. `COc1cc(Cn2cccn2)cc2onc(NS(=O)(=O)c3cccc(N4CCN(CC5CN(c6ccc7c(c6)C(=O)N(C6CCC(=O)NC6=O)C7=O)CCO5)CC4)c3)c12` (centres unmarked) [Example 18, N-(6-((1H-Pyrazol-1-yl)methyl)-4-methoxybenzo[d]isoxazol-3-yl)-3-(4-((4-(2-(2,6-dioxopiperidin-3-yl)-1,3-dioxoisoindolin-5-yl)morpholin-2-yl)methyl)piperazin-1-yl)benzenesulfonamide] yielded a Dmax of 25 to 50%. `COc1cc(Cn2cccn2)cc2onc(NS(=O)(=O)c3cccc(N4C[C@@H]5CN(C[C@@H]6CCN(c7ccc8c(c7)CN([C@H]7CCC(=O)NC7=O)C8=O)C6)C[C@H]5C4)c3)c12` [Example 40, N-(6-((1H-Pyrazol-1-yl)methyl)-4-methoxybenzo[d]isoxazol-3-yl)-3-((3aS,6aS)-5-(((S)-1-(2-((S)-2,6-dioxopiperidin-3-yl)-1-oxoisoindolin-5-yl)pyrrolidin-3-yl)methyl)hexahydropyrrolo[3,4-c]pyrrol-2(1H)-yl)benzenesulfonamide] registered a DC50 of less than 10 nM and a Dmax of more than 75%. The corresponding values for `COc1cc(Cn2cccn2)cc2onc(NS(=O)(=O)c3cccc(N4CC5(CCN(C[C@H]6CCN(c7ccc8c(c7)C(=O)N(C7CCC(=O)NC7=O)C8=O)C6)CC5)C4)c3)c12` (stereo partly drawn) [Example 35, N-(6-((1H-pyrazol-1-yl)methyl)-4-methoxybenzo[d]isoxazol-3-yl)-3-(7-(((3R)-1-(2-(2,6-dioxopiperidin-3-yl)-1,3-dioxoisoindolin-5-yl)pyrrolidin-3-yl)methyl)-2,7-diazaspiro[3.5]nonan-2-yl)benzenesulfonamide] are less than 10 nM and 50 to 75%. The compound `COc1cc(Cn2cccn2)cc2onc(NS(=O)(=O)c3cccc(NC4CCN(C[C@@H]5CCN(c6ccc7c(c6)CN([C@H]6CCC(=O)NC6=O)C7=O)C5)CC4)c3)c12` [Example 38, N-(6-((1H-Pyrazol-1-yl)methyl)-4-methoxybenzo[d]isoxazol-3-yl)-3-((1-(((S)-1-(2-((S)-2,6-dioxopiperidin-3-yl)-1-oxoisoindolin-5-yl)pyrrolidin-3-yl)methyl)piperidin-4-yl)amino)benzenesulfonamide] gave a DC50 of 10 to 100 nM and a Dmax of 50 to 75%.

On to `COc1cc(Cn2cccn2)cc2onc(NS(=O)(=O)c3cccc(N4CC5(CCN(CC6(C)CCN(c7ccc8c(c7)C(=O)N(C7CCC(=O)NC7=O)C8=O)C6)CC5)C4)c3)c12` (centres unmarked) [Example 12, N-(6-((1H-Pyrazol-1-yl)methyl)-4-methoxybenzo[d]isoxazol-3-yl)-3-(7-((1-(2-(2,6-dioxopiperidin-3-yl)-1,3-dioxoisoindolin-5-yl)-3-methylpyrrolidin-3-yl)methyl)-2,7-diazaspiro[3.5]nonan-2-yl)benzenesulfonamide], for which the DC50 was less than 10 nM and the Dmax was in the range of 50 to 75%. The compound `COc1cc(Cn2cccn2)cc2onc(NS(=O)(=O)c3cccc(N4CCC5(CCN(C[C@@H]6CCN(c7ccc8c(c7)C(=O)N(C7CCC(=O)NC7=O)C8=O)C6)CC5)C4)c3)c12` (stereo partly drawn) [Example 15, N-(6-((1H-Pyrazol-1-yl)methyl)-4-methoxybenzo[d]isoxazol-3-yl)-3-(8-(((3S)-1-(2-(2,6-dioxopiperidin-3-yl)-1,3-dioxoisoindolin-5-yl)pyrrolidin-3-yl)methyl)-2,8-diazaspiro[4.5]decan-2-yl)benzenesulfonamide] gave a DC50 of less than 10 nM and a Dmax of 50 to 75%. The corresponding values for `COc1cc(Cn2cccn2)cc2onc(NS(=O)(=O)c3cccc(N4CCN(CC5CC6(CCN(c7ccc8c(c7)C(=O)N(C7CCC(=O)NC7=O)C8=O)CC6)C5)CC4)c3)c12` (centres unmarked) [Example 19, N-(6-((1H-Pyrazol-1-yl)methyl)-4-methoxybenzo[d]isoxazol-3-yl)-3-(4-((7-(2-(2,6-dioxopiperidin-3-yl)-1,3-dioxoisoindolin-5-yl)-7-azaspiro[3.5]nonan-2-yl)methyl)piperazin-1-yl)benzenesulfonamide] are 10 to 100 nM and 50 to 75%.
